The EC50 is the concentration needed to bring the measured effect to its halfway point.

One assay deals with T1, human GLP-1 receptor (Homo sapiens, UniProt P43220).
T1 construct: HA (N); expressed in transfected cells
T1 sequence (P43220 24-463): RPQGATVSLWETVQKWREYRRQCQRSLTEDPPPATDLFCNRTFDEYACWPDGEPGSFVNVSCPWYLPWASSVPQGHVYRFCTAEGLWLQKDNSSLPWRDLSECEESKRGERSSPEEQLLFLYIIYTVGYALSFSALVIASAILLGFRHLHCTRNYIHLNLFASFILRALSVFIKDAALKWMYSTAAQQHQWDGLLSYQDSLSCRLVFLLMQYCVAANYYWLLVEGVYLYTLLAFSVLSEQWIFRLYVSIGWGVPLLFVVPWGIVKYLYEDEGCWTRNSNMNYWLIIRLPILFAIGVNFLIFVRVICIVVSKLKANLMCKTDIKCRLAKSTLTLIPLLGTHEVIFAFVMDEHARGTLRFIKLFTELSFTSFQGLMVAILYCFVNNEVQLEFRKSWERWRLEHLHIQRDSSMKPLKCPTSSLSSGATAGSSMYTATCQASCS
As to the kind of experiment: GLP-1 receptor-mediated agonist activity: cAMP level in hGLP-1R/HEK293 cell line (HTRF). The assay is classed as cell-based. The settings on record: cAMP levels in hGLP-1R/HEK293 cell line; Table 1; read-out: determined EC50. In general terms: Cyclic AMP is a second messenger, typically raised through Gs and lowered through Gi signalling.
Experimental: The hGLP-1R/HEK293 cells were digested, centrifuged and resuspended in culture medium (DMEM+0.2% BSA, m/v), and the cell density was adjusted to 2×10^5 cells/mL. IBMX (3-isobutyl-1-methylxanthine, final concentration of 0.5 mM) was added to the cell suspension and added to a 384-well plate at 5 µL (1×10^3 cells)/well. The compound was dissolved in DMSO to prepare a stock solution with a concentration of 10 mM. The experiment started with a concentration of 100 µM which was diluted 10 times in a series of 7 dilution points, with the 8th point being DMSO. 2 µL of the test compound of different concentrations was added to 98 µL of culture medium, shaken and mixed, 5 µL was taken and added to a 384-well plate (final concentration of the test compound was 0-100 nM, final concentration of DMSO was 1%, v/v), which was then incubated in the incubator (37°C, 5% CO2) in the dark for 30 min, then 10 µL of cAMP detection reagent (LANCE Ultra cAMP Detecion Kit, PerkinElmer, #TRF0264) was added, mixed well, and reacted at room temperature in the dark for 1 h. After the reaction was completed, the HTRF signal was read using the Envision 2104 multi-function microplate reader. All samples were tested in triplicate wells, and the ratio of the acceptor-donor excitation signal in each single well was calculated using the formula Ratio = Signal 665nM/Signal 620nM. The HTRF signal ratio and the corresponding compound concentration were analyzed and processed using GraphPad Prism 8 software, and the EC50 value of the compound was obtained by fitting the S-type dose-response curve and calculating.
Take `O=C(O)c1cc(OC2CC2)c2nc(CN3CCN(c4cccc(OCc5ccc(Cl)cc5F)n4)C=N3)n(C[C@@H]3CCO3)c2c1` [Compound 25, (S)-2-((4-(6-((4-chloro-2-fluorobenzyl)oxy)pyridin-2-yl)-5,6-dihydro-1,2,4-triazin-1(4H)-yl)methyl)-4-cyclopropyloxy-1-(oxetan-2-ylmethyl)-1H-benzo[d]imidazole-6-carboxylic acid]: the EC50 worked out at 11.8 pM.

As to `CCOc1cc(C(=O)O)cc2c1nc(CN1CCN(c3cccc(OCc4ccc(Cl)cc4F)n3)C=N1)n2C[C@@H]1CCO1` [Compound 21, (S)-2-((4-(6-((4-chloro-2-fluorobenzyl)oxy)pyridin-2-yl)-5,6-dihydro-1,2,4-triazin-1(4H)-yl)methyl)-4-ethoxy-1-(oxetan-2-ylmethyl)-1H-benzo[d]imidazole-6-carboxylic acid], the EC50 stood at 1 pM.

On to `COc1cc(C#N)ccc1COc1ccccc1C1CCN(Cc2nc3c(OC)cc(C(=O)O)cc3n2C[C@@H]2CCO2)CC1` [Compound 44, (S)-2-((4-(2-((4-cyano-2-methoxybenzyl)oxy)phenyl)piperidin-1-yl)methyl)-4-methoxy-1-(oxetan-2-ylmethyl)-1H-benzo[d]imidazole-6-carboxylic acid], for which the EC50 was determined as 9.5 pM.

Consider `[2H]C([2H])([2H])Oc1cc(C(=O)O)cc2c1nc(CN1CCN(c3cccc(OCc4ccc(C#N)cc4F)n3)C=N1)n2C[C@@H]1CCO1` [Compound 12, (S)-2-((4-(6-((4-cyano-2-fluorobenzyl)oxy)pyridin-2-yl)-5,6-dihydro-1,2,4-triazin-1(4H)-yl)methyl)-4-(methoxy-d3)-1-(oxetan-2-ylmethyl)-1H-benzo[d]imidazole-6-carboxylic acid], for which the EC50 came out at 4 pM.

For the compound `COc1cc(C(=O)O)cc2c1nc(CN1CCC(c3cccnc3OCc3ccc(C#N)c4c3OCC4)CC1)n2C[C@@H]1CCO1` [Compound 35, (S)-2-((4-(2-((4-cyano-2,3-dihydrobenzofuran-7-yl)methoxy)pyridin-3-yl)piperidin-1-yl)methyl)-4-methoxy-1-(oxetan-2-ylmethyl)-1H-benzo[d]imidazole-6-carboxylic acid], the EC50 worked out at 8.2 pM.

For `CCOc1cc(C(=O)O)cc2c1nc(CN1CCN(c3cccc4c3OC(C)(c3ccc(C(F)(F)F)cc3OC)O4)C=N1)n2C[C@@H]1CCO1` (stereo partly drawn) [Compound 90, 4-ethoxy-2-((4-(2-(2-methoxy-4-(trifluoromethyl)phenyl)-2-methylbenzo[d][1,3]dioxol-4-yl)-5,6-dihydro-1,2,4-triazin-1(4H)-yl)methyl)-1-(((S)-oxetan-2-yl)methyl)-1H-benzo[d]imidazole-6-carboxylic acid], the EC50 stood at 6.1 pM.

For `CCOc1cc(C(=O)O)cc2c1nc(CN1CCC(c3cccc(OCc4ccc(Cl)cc4F)n3)CC1)n2C[C@@H]1CCO1` [Compound 29, (S)-2-((4-(6-((4-chloro-2-fluorobenzyl)oxy)pyridin-2-yl)piperidin-1-yl)methyl)-4-ethoxy-1-(oxetan-2-ylmethyl)-1H-benzo[d]imidazole-6-carboxylic acid], the concentration giving a half-maximal response (EC50) was determined as 2.2 pM.

As to `CCOc1cc(C(=O)O)cc2c1nc(CN1CCC(c3cccc4c3OC(C)(c3ccc(C(F)(F)F)cn3)O4)CC1)n2C[C@@H]1CCO1` (stereo partly drawn) [Compound 56, 4-ethoxy-2-((4-(2-methyl-2-(5-(trifluoromethyl)pyridin-2-yl)benzo[d][1,3]dioxol-4-yl)piperidin-1-yl)methyl)-1-(((S)-oxetan-2-yl)methyl)-1H-benzo[d]imidazole-6-carboxylic acid], the EC50 was 9.8 pM.

Consider `CCOc1cc(C(=O)O)cc2c1nc(CN1CCC(c3cccc4c3OC(C)(c3ccc(Cl)cn3)O4)CC1)n2C[C@@H]1CCO1` (stereo partly drawn) [Compound 39, 2-((4-(2-(5-chloropyridin-2-yl)-2-methylbenzo[d][1,3]dioxol-4-yl)piperidin-1-yl)methyl)-4-ethoxy-1-(((S)-oxetan-2-yl)methyl)-1H-benzo[d]imidazole-6-carboxylic acid], for which the EC50 worked out at 8 pM.

For `COc1cc(C(=O)O)cc2c1nc(CN1CCC(c3ccccc3OCc3ccc(C#N)c4c3OCC4)CC1)n2C[C@@H]1CCO1` [Compound 46, (S)-2-((4-(2-((4-cyano-2,3-dihydrobenzofuran-7-yl)methoxy)phenyl)piperidin-1-yl)methyl)-4-methoxy-1-(oxetan-2-ylmethyl)-1H-benzo[d]imidazole-6-carboxylic acid], the concentration for a half-maximal effect (EC50) turned out to be 42.2 pM.

On to `[2H]C([2H])([2H])C([2H])([2H])Oc1cc(C(=O)O)cc2c1nc(CN1CCN(c3cccc4c3OC(C)(c3ccc(Cl)c(F)c3F)O4)C=N1)n2C[C@@H]1CCO1` (stereo partly drawn) [Compound 77, 2-((4-(2-(4-chloro-2,3-difluorophenyl)-2-methylbenzo[d][1,3]dioxol-4-yl)-5,6-dihydro-1,2,4-triazin-1(4H)-yl)methyl)-4-(ethoxy-d5)-1-(((S)-oxetan-2-yl)methyl)-1H-benzo[d]imidazole-6-carboxylic acid], for which the EC50 amounted to 16.5 pM.

Take `CC1(c2ccc(Cl)cn2)Oc2cccc(C3CCN(Cc4nc5c(OC(F)F)cc(C(=O)O)cc5n4C[C@@H]4CCO4)CC3)c2O1` (stereo partly drawn) [Compound 62, 2-((4-(2-(5-chloropyridin-2-yl)-2-methylbenzo[d][1,3]dioxol-4-yl)piperidin-1-yl)methyl)-4-(difluoromethoxy)-1-(((S)-oxetan-2-yl)methyl)-1H-benzo[d]imidazole-6-carboxylic acid]: the EC50 worked out at 22 pM.

On to `[2H]C([2H])([2H])Oc1cc(C(=O)O)cc2c1nc(CN1CCN(c3cccc4c3OC(C)(c3ccc(C(F)(F)F)cc3OC)O4)C=N1)n2C[C@@H]1CCO1` (stereo partly drawn) [Compound 89, 4-(Methoxy-d3)-2-((4-(2-(2-methoxy-4-(trifluoromethyl)phenyl)-2-methylbenzo[d][1,3]dioxol-4-yl)-5,6-dihydro-1,2,4-triazin-1(4H)-yl)methyl)-1-(((S)-oxetan-2-yl)methyl)-1H-benzo[d]imidazole-6-carboxylic acid], for which the EC50 came to 7.5 pM.

Regarding `COc1cc(C(=O)O)cc2c1nc(CN1CCN(c3cccc(OCc4ccc(C#N)cc4F)n3)C=N1)n2C[C@@H]1CCO1` [Compound 8, (S)-2-((4-(6-((4-cyano-2-fluorobenzyl)oxy)pyridin-2-yl)-5,6-dihydro-1,2,4-triazin-1(4H)-yl)methyl)-4-methoxy-1-(oxetan-2-ylmethyl)-1H-benzo[d]imidazole-6-carboxylic acid], the concentration for a half-maximal effect (EC50) amounted to 3.4 pM.

Regarding `COc1cc(C(=O)O)cc2c1nc(CN1CCN(c3cccc(OCc4ccc(Cl)cc4F)n3)CC1)n2C[C@@H]1CCO1` [Compound 30, (S)-2-((4-(6-((4-chloro-2-fluorobenzyl)oxy)pyridin-2-yl)piperazin-1-yl)methyl)-4-methoxy-1-(oxetan-2-ylmethyl)-1H-benzo[d]imidazole-6-carboxylic acid], the EC50 was 9.6 pM.

As to `CCOc1cc(C(=O)O)cc2c1nc(CN1CCC(c3cccnc3OCc3ccc(Cl)cc3F)CC1)n2C[C@@H]1CCO1` [Compound 32, (S)-2-((4-(2-((4-chloro-2-fluorobenzyl)oxy)pyridin-3-yl)piperidin-1-yl)methyl)-4-ethoxy-1-(oxetan-2-ylmethyl)-1H-benzo[d]imidazole-6-carboxylic acid], the EC50 is 14.2 pM.

Still in this assay, the particulars now being: cAMP levels of the hGLP-1R/HEK293 cell line; Table 2, comparison with reference compounds; read-out: EC50.
Take `CC1(c2ccc(Cl)cc2F)Oc2cccc(C3CCN(Cc4nc5ccc(C(=O)O)cc5n4C[C@@H]4CCO4)CC3)c2O1` (some centres unmarked) [WO2019239319 , Example 7, reference compound]: the 50% effective concentration (EC50) amounted to 22 pM.
